The record followed here is patent US20140005177A1, “PYRIDINYL- AND PYRAZINYL-METHYLOXY-ARYL DERIVATIVES USEFUL AS INHIBITORS OF SPLEEN TYROSINE KINASE (SYK)” (GLAXO GROUP LIMITED, priority 2011, published 2014).

Counter-ions that a name gives are not always drawn.

One assay relates to Ramos B cells. Put plainly: Ramos pErk assay (anti-IgM stimulated B cells, pErk MSD). The assay is classed as cell-based. To be noted: Homo sapiens, Ramos, anti-IgM 5 μg/ml, pErk readout, read-out: average pIC50 (converted). On the procedure: Ramos B cells (human B cells of Burkitt's Lymphoma) are stimulated using anti-IgM. […] The subsequent autophosphorylation of Syk leads to initiation of a signalling cascade resulting in B cell activation via the Erk MAP Kinase pathway. As a result Erk is phosphorylated and following cell lysis is detected by an immune capture assay.
Cells were plated at a density of 2.5×10^5/well in a volume of 25 μl assay medium (RPMI containing 10% heat inactivated foetal calf serum, 1% L-glutamine) in 96 v-well polypropylene plates. 25 μl appropriately diluted compound solution was added and the plate incubated for 30 min at 37° C. with 5% CO2. Cells were stimulated with 5 μl Fab′2 fragments of goat anti-human IgM (5 μg/ml final) for 7 min at 37° C. Cells are lysed by the addition of 55 μL 2×RIPA lysis buffer for 2 h at 4° C. Lysate may be frozen at this point at −80° C.
50 μl cell lysate was transferred to a 96 well MSD plate coated with anti-pErk1/2 (Thr/Tyr: 202/204; 185/187) capture antibody and incubated for 16 hours at 4° C. or 3 hours at room temperature. The plate was washed and an anti-pErk detection antibody added (25 μl/well) for 1 hour at room temperature. This was removed, 150 μL MSD read buffer added and the resultant electrochemiluminescence signal measured.
Compound was prepared as a 10 mM stock in DMSO and a dilution series prepared in DMSO using 9 successive 5-fold dilutions. This dilution series was diluted a further 1:100 with assay medium to give the final concentration range to be tested of 5×10^−5 to 2.56×10^−11M. Compound dilutions were prepared using the Biomek 2000 and Biomek Nx automated robotic pipetting systems.
Consider `CNC(=O)c1ccc(OCc2cc(C)ccn2)c(-c2ccc3c(c2)CCNCC3)c1` [Example 39, N-methyl-4-{[(4-methyl-2-pyridinyl)methyl]oxy}-3-(2,3,4,5-tetrahydro-1H-3-benzazepin-7-yl)benzamide], for which the IC50 was 158 to 6310 nM.

Take `COc1ccc(OCc2cc(C)ccn2)c(-c2ccc3c(c2)CNCC3)c1` [Example 16, 7-(5-(methyloxy)-2-{[(4-methyl-2-pyridinyl)methyl]oxy}phenyl)-1,2,3,4-tetrahydroisoquinoline]: the IC50 was 158 to 6310 nM.

Take `Cc1ccnc(COc2ccc(C(C)(C)C)nc2-c2ccc3c(c2)CCNCC3)c1` [Example 34, 7-(6-(1,1-dimethylethyl)-3-{[(4-methyl-2-pyridinyl)methyl]oxy}-2-pyridinyl)-2,3,4,5-tetrahydro-1H-3-benzazepine]: the IC50 is 158 to 6310 nM.

Consider `Cc1ccnc(COc2ccc(C(C)(C)C)cc2-c2ccc3c(c2)CNCC3)c1` [Example 17, 7-(5-(1,1-dimethylethyl)-2-{[(4-methyl-2-pyridinyl)methyl]oxy}phenyl)-1,2,3,4-tetrahydroisoquinoline], for which the IC50 is 158 to 6310 nM.

On to `COc1ccc(OCc2cc(C)ccn2)c(-c2ccc3c(c2)CCNCC3)c1` [Example 22, 7-(5-(methyloxy)-2-{[(4-methyl-2-pyridinyl)methyl]oxy}phenyl)-2,3,4,5-tetrahydro-1H-3-benzazepine, trifluoroacetate], for which the IC50 was 158 to 6310 nM.

With `Cc1ccnc(COc2ccc(Cl)nc2-c2ccc3c(c2)CNCC3)c1` [Example 49, 7-(6-chloro-3-{[(4-methyl-2-pyridinyl)methyl]oxy}-2-pyridinyl)-1,2,3,4-tetrahydroisoquinoline], the IC50 was 158 to 6310 nM.

Turning to `Cc1ccnc(COc2ccc(C)cc2-c2ccc3c(c2)CNCC3)c1` [Example 10, 7-(5-methyl-2-{[(4-methyl-2-pyridinyl)methyl]oxy}phenyl)-1,2,3,4-tetrahydroisoquinoline], the IC50 is 158 to 6310 nM.

As to `CCc1ccnc(COc2ccc(C)nc2-c2ccc3c(c2)CCNCC3)c1` [Example 33, 7-(3-{[(4-ethyl-2-pyridinyl)methyl]oxy}-6-methyl-2-pyridinyl)-2,3,4,5-tetrahydro-1H-3-benzazepine], the IC50 was 158 to 6310 nM.

For `Cc1ccnc(COc2ccc(Cl)cc2-c2ccc3c(c2)CCNCC3)c1` [Example 45, 7-(5-chloro-2-{[(4-methyl-2-pyridinyl)methyl]oxy}phenyl)-2,3,4,5-tetrahydro-1H-3-benzazepine], the IC50 is 158 to 6310 nM.

Turning to `COc1cccc(OCc2cc(C)ccn2)c1-c1ccc2c(c1)CCNCC2` [Example 2, 7-(2-(methyloxy)-6-{[(4-methyl-2-pyridinyl)methyl]oxy}phenyl)-2,3,4,5-tetrahydro-1H-3-benzazepine], the IC50 was 158 to 6310 nM.

Turning to `CCOc1ccc(OCc2cc(C)ccn2)c(-c2ccc3c(c2)CCNCC3)c1` [Example 28, 7-(5-(ethyloxy)-2-{[(4-methyl-2-pyridinyl)methyl]oxy}phenyl)-2,3,4,5-tetrahydro-1H-3-benzazepine], the IC50 is 158 to 6310 nM.

`Cc1ccnc(COc2ccc(F)cc2-c2ccc3c(c2)CCNCC3)c1` [Example 26, 7-(5-fluoro-2-{[(4-methyl-2-pyridinyl)methyl]oxy}phenyl)-2,3,4,5-tetrahydro-1H-3-benzazepine]: the IC50 was 158 to 6310 nM.

With `Cc1ccnc(COc2ccc(C)nc2-c2ccc3c(c2)CCNCC3)c1` [Example 19, 7-(6-methyl-3-{[(4-methyl-2-pyridinyl)methyl]oxy}-2-pyridinyl)-2,3,4,5-tetrahydro-1H-3-benzazepine, trifluoroacetate], the IC50 was 158 to 6310 nM.

For `CCOc1ccc(OCc2cc(C)ccn2)c(-c2ccc3c(c2)CNCC3)c1` [Example 12, 7-(5-(ethyloxy)-2-{[(4-methyl-2-pyridinyl)methyl]oxy}phenyl)-1,2,3,4-tetrahydroisoquinoline], the IC50 is 158 to 6310 nM.

As to `COc1ccc(-c2ccc3c(c2)CCNCC3)c(OCc2cc(C)ccn2)c1` [Example 3, 7-(4-(methyloxy)-2-{[(4-methyl-2-pyridinyl)methyl]oxy}phenyl)-2,3,4,5-tetrahydro-1H-3-benzazepine], the IC50 is 158 to 6310 nM.

On to `CC(=O)c1ccc(OCc2ccccn2)c(-c2ccc3c(c2)CNCC3)c1` [Example 38, 1-[4-[(2-pyridinylmethyl)oxy]-3-(1,2,3,4-tetrahydro-7-isoquinolinyl)phenyl]ethanone], for which the IC50 was 158 to 6310 nM.

For the molecule `Cc1ccnc(COc2ccc(F)cc2-c2ccc3c(c2)CNCC3)c1` [Example 6, 7-(5-fluoro-2-{[(4-methyl-2-pyridinyl)methyl]oxy}phenyl)-1,2,3,4-tetrahydroisoquinoline], the IC50 was 158 to 6310 nM.

Take `Cc1ccnc(COc2ccc(C(F)(F)F)cc2-c2ccc3c(c2)CCNCC3)c1` [Example 31, 7-[2-{[(4-methyl-2-pyridinyl)methyl]oxy}-5-(trifluoromethyl)phenyl]-2,3,4,5-tetrahydro-1H-3-benzazepine]: the IC50 was 158 to 6310 nM.

Consider `CCOc1ccnc(COc2ccc(C(C)=O)cc2-c2ccc3c(c2)CCNCC3)c1` [Example 36, 1-[4-({[4-(ethyloxy)-2-pyridinyl]methyl}oxy)-3-(2,3,4,5-tetrahydro-1H-3-benzazepin-7-yl)phenyl]ethanone], for which the IC50 is 158 to 6310 nM.

Regarding `COc1ccc(OCc2ccccn2)c(-c2ccc3c(c2)CCNCC3)c1` [Example 37, 7-{5-(methyloxy)-2-[(2-pyridinylmethyl)oxy]phenyl}-2,3,4,5-tetrahydro-1H-3-benzazepine], the IC50 was 158 to 6310 nM.

On to `Cc1ccnc(COc2ccc(C(C)(C)C)cc2-c2ccc3c(c2)CCNCC3)c1` [Example 32, 7-(5-(1,1-dimethylethyl)-2-{[(4-methyl-2-pyridinyl)methyl]oxy}phenyl)-2,3,4,5-tetrahydro-1H-3-benzazepine], for which the IC50 is 158 to 6310 nM.

Consider `Cc1ccnc(COc2ccc(C)cc2-c2ccc3c(c2)CCNCC3)c1` [Example 27, 7-(5-methyl-2-{[(4-methyl-2-pyridinyl)methyl]oxy}phenyl)-2,3,4,5-tetrahydro-1H-3-benzazepine], for which the IC50 was 158 to 6310 nM.

Take `Clc1ccc(OCc2ccccn2)c(-c2ccc3c(c2)CNCC3)c1` [Example 46, 7-{5-chloro-2-[(2-pyridinylmethyl)oxy]phenyl}-1,2,3,4-tetrahydroisoquinoline]: the IC50 is 158 to 6310 nM.

Consider `Cc1ccnc(COc2ccc(C(F)(F)F)cc2-c2ccc3c(c2)CNCC3)c1` [Example 15, 7-[2-{[(4-methyl-2-pyridinyl)methyl]oxy}-5-(trifluoromethyl)phenyl]-1,2,3,4-tetrahydroisoquinoline], for which the IC50 is 158 to 6310 nM.

Regarding `Cc1ccnc(COc2ccc(Cl)nc2-c2ccc3c(c2)CCNCC3)c1` [Example 48, 7-(6-chloro-3-{[(4-methyl-2-pyridinyl)methyl]oxy}-2-pyridinyl)-2,3,4,5-tetrahydro-1H-3-benzazepine], the IC50 was 158 to 6310 nM.

As to `COc1ccnc(COc2ccccc2-c2ccc3c(c2)CCNCC3)c1` [Example 7, 7-[2-({[4-(methyloxy)-2-pyridinyl]methyl}oxy)phenyl]-2,3,4,5-tetrahydro-1H-3-benzazepine], the IC50 was 158 to 6310 nM.

As for `COc1ccc(OCc2cnccn2)c(-c2ccc3c(c2)CCNCC3)c1` [Example 20, 7-{5-(methyloxy)-2-[(2-pyrazinylmethyl)oxy]phenyl}-2,3,4,5-tetrahydro-1H-3-benzazepine, trifluoroacetate], the IC50 was 158 to 6310 nM.

For `Cc1ccnc(COc2ccc(C#N)cc2-c2ccc3c(c2)CCNCC3)c1` [Example 30, 4-{[(4-methyl-2-pyridinyl)methyl]oxy}-3-(2,3,4,5-tetrahydro-1H-3-benzazepin-7-yl)benzonitrile], the IC50 is 158 to 6310 nM.

Consider `COc1cccc(OCc2cc(C)ccn2)c1-c1ccc2c(c1)CNCC2` [Example 11, 7-(2-(methyloxy)-6-{[(4-methyl-2-pyridinyl)methyl]oxy}phenyl)-1,2,3,4-tetrahydroisoquinoline], for which the IC50 was 158 to 6310 nM.

Regarding `CCc1ccnc(COc2ccc(C(C)=O)cc2-c2ccc3c(c2)CCNCC3)c1` [Example 35, 1-[4-{[(4-ethyl-2-pyridinyl)methyl]oxy}-3-(2,3,4,5-tetrahydro-1H-3-benzazepin-7-yl)phenyl]ethanone], the IC50 was 158 to 6310 nM.

On to `Cc1ccnc(COc2ccc(C(=O)N(C)C)cc2-c2ccc3c(c2)CNCC3)c1` [Example 41, N,N-dimethyl-4-{[(4-methyl-2-pyridinyl)methyl]oxy}-3-(1,2,3,4-tetrahydro-7-isoquinolinyl)benzamide], for which the IC50 is 158 to 6310 nM.

Still in this assay, the particulars now being: Homo sapiens, anti-IgM 5 μg/ml, pErk readout, read-out: average pIC50 (converted).
Take `CC(=O)c1ccc(OCc2cc(C)ccn2)c(-c2ccc3c(c2)CCNCC3)c1` [Example 4, 1-[4-{[(4-methyl-2-pyridinyl)methyl]oxy}-3-(2,3,4,5-tetrahydro-1H-3-benzazepin-7-yl)phenyl]ethanone]: the IC50 was at most 1000 nM.

As for `COc1cccc(OCc2cc(C)ccn2)c1-c1ccc2c(c1)CCNCC2` [Example 2, 7-(2-(methyloxy)-6-{[(4-methyl-2-pyridinyl)methyl]oxy}phenyl)-2,3,4,5-tetrahydro-1H-3-benzazepine], the IC50 is at most 1000 nM.

In the case of `COc1ccc(-c2ccc3c(c2)CCNCC3)c(OCc2cc(C)ccn2)c1` [Example 3, 7-(4-(methyloxy)-2-{[(4-methyl-2-pyridinyl)methyl]oxy}phenyl)-2,3,4,5-tetrahydro-1H-3-benzazepine], the IC50 was at most 1000 nM.
